Measured values published in ChEMBL document CHEMBL4270503, “Recent developments in small molecule therapies for renal cell carcinoma” (Eur J Med Chem, 2017).

Legend:
[1] = species on record: Homo sapiens; assay: Antitumor activity in renal cell carcinoma patient with previous cytokine therapies assessed as progression free survival; assay type: functional
[2] = species on record: Homo sapiens; assay: Antitumor activity in renal cell carcinoma patient with previous sunitinib treatment assessed as progression free survival; assay type: functional
[3] = species on record: Homo sapiens; assay: Antitumor activity in patient with metastatic renal cell carcinoma assessed as progression free survival; assay type: functional
[4] = species on record: Homo sapiens; assay: Antitumor activity in renal cell carcinoma patient with 2 previous VEGFR TKI treatment assessed as progression free survival (reference value: 1.8 months); assay type: functional
[5] = species on record: Homo sapiens; assay: Antitumor activity in patient with metastatic renal cell carcinoma assessed as overall survival; assay type: functional
[6] = species on record: Homo sapiens; assay: Antitumor activity in renal cell carcinoma patient without previous VEGFR TKI treatment assessed as progression free survival (reference value: 1.9 months); assay type: functional
[7] = species on record: Homo sapiens; assay: Antitumor activity in treatment-naive and cytokine-refractory patient with renal cell carcinoma assessed as progression free survival (reference value: 4.2 months); assay type: functional
[8] = species on record: Homo sapiens; assay: Antitumor activity in patient with renal cell carcinoma assessed as overall survival during phase 3 non-inferiority trial; assay type: functional
[9] = test system: CAKI-2; assay: Antitumor activity against human Caki2 cells xenografted in nuded mouse assessed as inhibition of tumor growth at 10 mg/kg, po; assay type: functional; conditions: CAKI-2, po, read-out: TGI
[10] = species on record: Homo sapiens; assay: Antitumor activity in patient with renal cell carcinoma assessed as progression free survival during phase 3 non-inferiority trial; assay type: functional
[11] = test system: HUVEC; assay: cells; conditions: Homo sapiens
[12] = test system: HUVEC; assay: cells; conditions: Homo sapiens; remark: listed apart in the source
[13] = species on record: Homo sapiens; assay: Antitumor activity in patient with renal cell carcinoma assessed as progression free survival (reference value: 2.8 months); assay type: functional
[14] = species on record: Homo sapiens; assay: Antitumor activity in patient with renal cell carcinoma assessed as overall survival (reference value: 15.2 months); assay type: functional
[15] = species on record: Homo sapiens; assay: Antitumor activity in patient with metastatic renal cell carcinoma assessed as objective response during phase 3 trial; assay type: functional
[16] = species on record: Homo sapiens; assay: Antitumor activity in patient with renal cell carcinoma assessed as progression free survival during phase 2 trial; assay type: functional
[17] = species on record: Homo sapiens; assay: Antitumor activity in patient with metastatic renal cell carcinoma assessed as overall survival during phase 3 trial; assay type: functional
[18] = species on record: Homo sapiens; assay: Antitumor activity in patient with metastatic renal cell carcinoma assessed as progression free survival during phase 3 trial; assay type: functional
[19] = species on record: Homo sapiens; assay: Antitumor activity in patient with metastatic renal cell carcinoma assessed as progression free survival co-treated with IFNalpha during phase 3 trial; assay type: functional

With `CNC(=O)c1ccccc1Sc1ccc2c(/C=C/c3ccccn3)n[nH]c2c1` [AXITINIB] the Survival [1] was 12.1 months and the Survival [2] was 4.8 months.
`COc1cc2nccc(Oc3ccc(NC(=O)C4(C(=O)Nc5ccc(F)cc5)CC4)cc3)c2cc1OC` [CABOZANTINIB] was tested, and the Survival [3] was 7.4 months.
In the case of `CO[C@H]1C[C@@H]2CC[C@@H](C)[C@@](O)(O2)C(=O)C(=O)N2CCCC[C@H]2C(=O)O[C@H]([C@H](C)C[C@@H]2CC[C@@H](OCCO)[C@H](OC)C2)CC(=O)[C@H](C)/C=C(\C)[C@@H](O)[C@@H](OC)C(=O)[C@H](C)C[C@H](C)/C=C/C=C/C=C/1C` [EVEROLIMUS], the Survival [4] is reported as 4 months, the Survival [3] is reported as 3.9 months and the Survival [5] is reported as 16.5 months. For the same compound, the Survival [6] was 5.4 months.
Work on `Cc1ccc(Nc2nccc(N(C)c3ccc4c(C)n(C)nc4c3)n2)cc1S(N)(=O)=O` [PAZOPANIB] yielded a Survival [7] of 9.2 months, a Survival [8] of 28.3 months and an inhibition in vivo at 10 mg/kg [9] of 77%. For the same compound, the Survival [10] was 8.4 months, the IC50 [11] was 720 nM and the IC50 [12] was 21 nM.
With `CNC(=O)c1cc(Oc2ccc(NC(=O)Nc3ccc(Cl)c(C(F)(F)F)c3)cc2)ccn1` [SORAFENIB] the Survival [13] was 5.5 months, the Survival [14] was 17.8 months and the Survival [1] was 6.5 months. For the same compound, the Survival [2] was 3.4 months.
`CCN(CC)CCNC(=O)c1c(C)[nH]c(/C=C2\C(=O)Nc3ccc(F)cc32)c1C` [SUNITINIB] was tested, and the Activity [15] was 31%, the Survival [8] was 29.1 months and the Survival [16] was 7.8 months. The Survival [17] was 26.4 months and the Survival [18] was 11 months.
`CO[C@H]1C[C@@H]2CC[C@@H](C)[C@@](O)(O2)C(=O)C(=O)N2CCCC[C@H]2C(=O)O[C@H]([C@H](C)C[C@@H]2CC[C@@H](OC(=O)C(C)(CO)CO)[C@H](OC)C2)CC(=O)[C@H](C)/C=C(\C)[C@@H](O)[C@@H](OC)C(=O)[C@H](C)C[C@H](C)/C=C/C=C/C=C/1C` [TEMSIROLIMUS] showed a Survival [19] of 8.4 months and a Survival [18] of 10.9 months.
